Laboratory results from patent US20230023092A1, “TREATMENT OF DEPRESSION AND OTHER VARIOUS DISORDERS WITH PSILOCYBIN” (COMPASS […], priority 2019, published 2023).

Experiments:
[1] = tested on: healthy subjects; assay: Five-Dimensional Altered States of Consciousness (5D-ASC) questionnaire; format: in vivo, human; conditions: for 5D-ASC Anxiety, Mean / 5D-ASC Audio-visual synaesthesia, Mean / 5D-ASC Auditory alteration, Mean / 5D-ASC Blissful state, Mean / 5D-ASC Changed meaning of percepts, Mean / 5D-ASC Complex imagery, Mean / 5D-ASC Disembodiment, Mean / 5D-ASC Dread of ego dissolution, Mean / 5D-ASC Elementary imagery, Mean / 5D-ASC Experience of unity, Mean / 5D-ASC Impaired control and cognition, Mean / 5D-ASC Insightfulness, Mean / 5D-ASC Oceanic boundlessness, Mean / 5D-ASC Spiritual experience, Mean / 5D-ASC Vigilance reduction, Mean / 5D-ASC Visual restructuralisation, Mean: Post-Treatment Day 0, LS mean; for 5D-ASC Anxiety, Mean difference / 5D-ASC Audio-visual synaesthesia, Mean difference / 5D-ASC Auditory alteration, Mean difference / 5D-ASC Blissful state, Mean difference / 5D-ASC Changed meaning of percepts, Mean difference / 5D-ASC Complex imagery, Mean difference / 5D-ASC Disembodiment, Mean difference / 5D-ASC Dread of ego dissolution, Mean difference / 5D-ASC Elementary imagery, Mean difference / 5D-ASC Experience of unity, Mean difference / 5D-ASC Impaired control and cognition, Mean difference / 5D-ASC Insightfulness, Mean difference / 5D-ASC Oceanic boundlessness, Mean difference / 5D-ASC Spiritual experience, Mean difference / 5D-ASC Vigilance reduction, Mean difference / 5D-ASC Visual restructuralisation, Mean difference: Post-Treatment Day 0
Text: In some embodiments, the Five Dimension Altered States of Consciousness questionnaire (5D-ASC) is utilized to evaluate the safety and/or efficacy of psilocybin. […] The 5 dimensions include oceanic boundlessness, anxious ego dissolution, visionary restructuralization, auditory alterations and reduction of vigilance.

[2] = tested on: healthy subjects; assay: NEO-Five Factor Inventory (NEO-FFI); format: in vivo, human
Experimental: In some embodiments, the NEO-Five Factor Inventory (NEO-FFI) test is used to evaluate the safety and/or efficacy of psilocybin. The NEO-FFI evaluates 5 broad domains of personality—Neuroticism, Extroversion, Openness, Agreeableness and Conscientiousness.
The Neuroticism Extraversion Openness-Five Factor Inventory (NEO-FFI) and Symptom Checklist-90 Item (SCL-90) were administered. Details of the MMRM applied to the change from baseline scores for the NEO-FFI and SCL-90 are provided below in Table 2Q.

[3] = tested on: subjects; conditions: prevalence unknown but likely; cited from earlier work
[4] = Day 7, psilocybin 10 mg - placebo
[5] = Day 7, psilocybin 25 mg - 10 mg
[6] = Day 7, psilocybin 25 mg - placebo
[7] = Day 84, psilocybin 10 mg - placebo
[8] = Day 84, psilocybin 25 mg - 10 mg
[9] = Day 84, psilocybin 25 mg - placebo

CN(C)CCc1c[nH]c2cccc(OP(=O)(O)O)c12 [Psilocybin, psilocybin]
5D-ASC Anxiety, Mean ([1]; Psilocybin 10 mg): 15.7
5D-ASC Audio-visual synaesthesia, Mean ([1]; Psilocybin 10 mg): 74.7
5D-ASC Auditory alteration, Mean ([1]; Psilocybin 10 mg): 20.3
5D-ASC Blissful state, Mean ([1]; Psilocybin 10 mg): 59.1
5D-ASC Changed meaning of percepts, Mean ([1]; Psilocybin 10 mg): 46.6
5D-ASC Complex imagery, Mean ([1]; Psilocybin 10 mg): 53.0
5D-ASC Disembodiment, Mean ([1]; Psilocybin 10 mg): 52.7
5D-ASC Dread of ego dissolution, Mean ([1]; Psilocybin 10 mg): 21.7
5D-ASC Elementary imagery, Mean ([1]; Psilocybin 10 mg): 76.5
5D-ASC Experience of unity, Mean ([1]; Psilocybin 10 mg): 54.4
5D-ASC Impaired control and cognition, Mean ([1]; Psilocybin 10 mg): 27.9
5D-ASC Insightfulness, Mean ([1]; Psilocybin 10 mg): 53.9
5D-ASC Oceanic boundlessness, Mean ([1]; Psilocybin 10 mg): 55.7
5D-ASC Spiritual experience, Mean ([1]; Psilocybin 10 mg): 48.7
5D-ASC Vigilance reduction, Mean ([1]; Psilocybin 10 mg): 35.3
5D-ASC Visual restructuralisation, Mean ([1]; Psilocybin 10 mg): 59.1
5D-ASC Anxiety, Mean difference ([1]; Psilocybin 10 mg-Placebo): 14.6
5D-ASC Audio-visual synaesthesia, Mean difference ([1]; Psilocybin 10 mg-Placebo): 66.6
5D-ASC Auditory alteration, Mean difference ([1]; Psilocybin 10 mg-Placebo): 18.6
5D-ASC Blissful state, Mean difference ([1]; Psilocybin 10 mg-Placebo): 50.9
5D-ASC Changed meaning of percepts, Mean difference ([1]; Psilocybin 10 mg-Placebo): 44.4
5D-ASC Complex imagery, Mean difference ([1]; Psilocybin 10 mg-Placebo): 48.6
5D-ASC Disembodiment, Mean difference ([1]; Psilocybin 10 mg-Placebo): 45.8
5D-ASC Dread of ego dissolution, Mean difference ([1]; Psilocybin 10 mg-Placebo): 20.5
5D-ASC Elementary imagery, Mean difference ([1]; Psilocybin 10 mg-Placebo): 63.6
5D-ASC Experience of unity, Mean difference ([1]; Psilocybin 10 mg-Placebo): 47.1
5D-ASC Impaired control and cognition, Mean difference ([1]; Psilocybin 10 mg-Placebo): 26.2
5D-ASC Insightfulness, Mean difference ([1]; Psilocybin 10 mg-Placebo): 47.6
5D-ASC Oceanic boundlessness, Mean difference ([1]; Psilocybin 10 mg-Placebo): 47.7
5D-ASC Spiritual experience, Mean difference ([1]; Psilocybin 10 mg-Placebo): 44.6
5D-ASC Vigilance reduction, Mean difference ([1]; Psilocybin 10 mg-Placebo): 20.0
5D-ASC Visual restructuralisation, Mean difference ([1]; Psilocybin 10 mg-Placebo): 52.6
5D-ASC Anxiety, Mean ([1]; Psilocybin 25 mg): 32.4
5D-ASC Audio-visual synaesthesia, Mean ([1]; Psilocybin 25 mg): 75.4
5D-ASC Auditory alteration, Mean ([1]; Psilocybin 25 mg): 30.7
5D-ASC Blissful state, Mean ([1]; Psilocybin 25 mg): 61.9
5D-ASC Changed meaning of percepts, Mean ([1]; Psilocybin 25 mg): 46.1
5D-ASC Complex imagery, Mean ([1]; Psilocybin 25 mg): 64.9
5D-ASC Disembodiment, Mean ([1]; Psilocybin 25 mg): 53.8
5D-ASC Dread of ego dissolution, Mean ([1]; Psilocybin 25 mg): 31.9
5D-ASC Elementary imagery, Mean ([1]; Psilocybin 25 mg): 76.9
5D-ASC Experience of unity, Mean ([1]; Psilocybin 25 mg): 60.9
5D-ASC Impaired control and cognition, Mean ([1]; Psilocybin 25 mg): 32.7
5D-ASC Insightfulness, Mean ([1]; Psilocybin 25 mg): 64.4
5D-ASC Oceanic boundlessness, Mean ([1]; Psilocybin 25 mg): 62.9
5D-ASC Spiritual experience, Mean ([1]; Psilocybin 25 mg): 57.9
5D-ASC Vigilance reduction, Mean ([1]; Psilocybin 25 mg): 45.7
5D-ASC Visual restructuralisation, Mean ([1]; Psilocybin 25 mg): 65.2
5D-ASC Anxiety, Mean difference ([1]; Psilocybin 25 mg-10 mg): 16.7
5D-ASC Audio-visual synaesthesia, Mean difference ([1]; Psilocybin 25 mg-10 mg): 0.7
5D-ASC Auditory alteration, Mean difference ([1]; Psilocybin 25 mg-10 mg): 10.5
5D-ASC Blissful state, Mean difference ([1]; Psilocybin 25 mg-10 mg): 2.8
5D-ASC Changed meaning of percepts, Mean difference ([1]; Psilocybin 25 mg-10 mg): −0.5
5D-ASC Complex imagery, Mean difference ([1]; Psilocybin 25 mg-10 mg): 11.9
5D-ASC Disembodiment, Mean difference ([1]; Psilocybin 25 mg-10 mg): 1.1
5D-ASC Dread of ego dissolution, Mean difference ([1]; Psilocybin 25 mg-10 mg): 10.1
5D-ASC Elementary imagery, Mean difference ([1]; Psilocybin 25 mg-10 mg): 0.4
5D-ASC Experience of unity, Mean difference ([1]; Psilocybin 25 mg-10 mg): 6.5
5D-ASC Impaired control and cognition, Mean difference ([1]; Psilocybin 25 mg-10 mg): 4.7
5D-ASC Insightfulness, Mean difference ([1]; Psilocybin 25 mg-10 mg): 10.5
5D-ASC Oceanic boundlessness, Mean difference ([1]; Psilocybin 25 mg-10 mg): 7.2
5D-ASC Spiritual experience, Mean difference ([1]; Psilocybin 25 mg-10 mg): 9.2
5D-ASC Vigilance reduction, Mean difference ([1]; Psilocybin 25 mg-10 mg): 10.3
5D-ASC Visual restructuralisation, Mean difference ([1]; Psilocybin 25 mg-10 mg): 6.1
5D-ASC Anxiety, Mean difference ([1]; Psilocybin 25 mg-Placebo): 31.3
5D-ASC Audio-visual synaesthesia, Mean difference ([1]; Psilocybin 25 mg-Placebo): 67.3
5D-ASC Auditory alteration, Mean difference ([1]; Psilocybin 25 mg-Placebo): 29.1
5D-ASC Blissful state, Mean difference ([1]; Psilocybin 25 mg-Placebo): 53.6
5D-ASC Changed meaning of percepts, Mean difference ([1]; Psilocybin 25 mg-Placebo): 43.9
5D-ASC Complex imagery, Mean difference ([1]; Psilocybin 25 mg-Placebo): 60.5
5D-ASC Disembodiment, Mean difference ([1]; Psilocybin 25 mg-Placebo): 46.9
5D-ASC Dread of ego dissolution, Mean difference ([1]; Psilocybin 25 mg-Placebo): 30.6
5D-ASC Elementary imagery, Mean difference ([1]; Psilocybin 25 mg-Placebo): 64.0
5D-ASC Experience of unity, Mean difference ([1]; Psilocybin 25 mg-Placebo): 53.6
5D-ASC Impaired control and cognition, Mean difference ([1]; Psilocybin 25 mg-Placebo): 30.9
5D-ASC Insightfulness, Mean difference ([1]; Psilocybin 25 mg-Placebo): 58.2
5D-ASC Oceanic boundlessness, Mean difference ([1]; Psilocybin 25 mg-Placebo): 54.9
5D-ASC Spiritual experience, Mean difference ([1]; Psilocybin 25 mg-Placebo): 53.7
5D-ASC Vigilance reduction, Mean difference ([1]; Psilocybin 25 mg-Placebo): 30.4
5D-ASC Visual restructuralisation, Mean difference ([1]; Psilocybin 25 mg-Placebo): 58.7
NEO agreeableness change from baseline, LS mean ([2]; Day 7, psilocybin 10 mg): −0.2
NEO conscientiousness change from baseline, LS mean ([2]; Day 7, psilocybin 10 mg): −0.1
NEO extraversion change from baseline, LS mean ([2]; Day 7, psilocybin 10 mg): 0.3
NEO neuroticism change from baseline, LS mean ([2]; Day 7, psilocybin 10 mg): 0.2
NEO openness change from baseline, LS mean ([2]; Day 7, psilocybin 10 mg): 0.3
NEO agreeableness change from baseline, LS mean difference [2, 4]: −0.4
NEO conscientiousness change from baseline, LS mean difference [2, 4]: 0.4
NEO extraversion change from baseline, LS mean difference [2, 4]: 0.4
NEO neuroticism change from baseline, LS mean difference [2, 4]: −0.2
NEO openness change from baseline, LS mean difference [2, 4]: 1.1
NEO agreeableness change from baseline, LS mean ([2]; Day 7, psilocybin 25 mg): 0.1
NEO conscientiousness change from baseline, LS mean ([2]; Day 7, psilocybin 25 mg): 0.1
NEO extraversion change from baseline, LS mean ([2]; Day 7, psilocybin 25 mg): 0.3
NEO neuroticism change from baseline, LS mean ([2]; Day 7, psilocybin 25 mg): 0.2
NEO openness change from baseline, LS mean ([2]; Day 7, psilocybin 25 mg): 0.4
NEO agreeableness change from baseline, LS mean difference [2, 5]: 0.4
NEO conscientiousness change from baseline, LS mean difference [2, 5]: 0.3
NEO extraversion change from baseline, LS mean difference [2, 5]: 0.1
NEO neuroticism change from baseline, LS mean difference [2, 5]: −0.0
NEO openness change from baseline, LS mean difference [2, 5]: 0.1
NEO agreeableness change from baseline, LS mean difference [2, 6]: −0.1
NEO conscientiousness change from baseline, LS mean difference [2, 6]: 0.7
NEO extraversion change from baseline, LS mean difference [2, 6]: 0.5
NEO neuroticism change from baseline, LS mean difference [2, 6]: 0.2
NEO openness change from baseline, LS mean difference [2, 6]: 1.2
NEO agreeableness change from baseline, LS mean ([2]; Day 84, psilocybin 10 mg): −0.9
NEO conscientiousness change from baseline, LS mean ([2]; Day 84, psilocybin 10 mg): −1.3
NEO extraversion change from baseline, LS mean ([2]; Day 84, psilocybin 10 mg): −0.9
NEO neuroticism change from baseline, LS mean ([2]; Day 84, psilocybin 10 mg): 2.1
NEO openness change from baseline, LS mean ([2]; Day 84, psilocybin 10 mg): 0.4
NEO agreeableness change from baseline, LS mean difference [2, 7]: −0.8
NEO conscientiousness change from baseline, LS mean difference [2, 7]: 0.2
NEO extraversion change from baseline, LS mean difference [2, 7]: −0.7
NEO neuroticism change from baseline, LS mean difference [2, 7]: 0.3
NEO openness change from baseline, LS mean difference [2, 7]: 1.1
NEO agreeableness change from baseline, LS mean ([2]; Day 84, psilocybin 25 mg): −0.9
NEO conscientiousness change from baseline, LS mean ([2]; Day 84, psilocybin 25 mg): −0.1
NEO extraversion change from baseline, LS mean ([2]; Day 84, psilocybin 25 mg): −0.7
NEO neuroticism change from baseline, LS mean ([2]; Day 84, psilocybin 25 mg): 0.8
NEO openness change from baseline, LS mean ([2]; Day 84, psilocybin 25 mg): 0.3
NEO agreeableness change from baseline, LS mean difference [2, 8]: 0.1
NEO conscientiousness change from baseline, LS mean difference [2, 8]: 1.2
NEO extraversion change from baseline, LS mean difference [2, 8]: 0.2
NEO neuroticism change from baseline, LS mean difference [2, 8]: −1.3
NEO openness change from baseline, LS mean difference [2, 8]: −0.7
NEO agreeableness change from baseline, LS mean difference [2, 9]: −0.7
NEO conscientiousness change from baseline, LS mean difference [2, 9]: 1.4
NEO extraversion change from baseline, LS mean difference [2, 9]: −0.5
NEO neuroticism change from baseline, LS mean difference [2, 9]: −1.0
NEO openness change from baseline, LS mean difference [2, 9]: 0.4
Frequency of rare side effects: HPPD/flashbacks; worsening of mental state after drug experience [3]: unknown but likely <2%)
